Assay results: PubChem BioAssay (NCI)
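In this assay, cells in 96-well plates receive the compound at five concentrations for 48 hours. Endpoints are linearly interpolated between the surrounding concentrations. At the GI50, growth is halved. TGI marks complete inhibition of growth.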

Tests used:
Test in all cases: inhibition of tumour cell growth, NCI panel, 48 h
HCT-116 colon = tested on: HCT-116 colon
K-562 leukemia = tested on: K-562 leukemia
M14 melanoma = tested on: M14 melanoma
NCI-H460 lung = tested on: NCI-H460 lung
OVCAR-8 ovarian = tested on: OVCAR-8 ovarian
RPMI-8226 leukemia = tested on: RPMI-8226 leukemia
SF-295 CNS = tested on: SF-295 CNS
SK-MEL-28 melanoma = tested on: SK-MEL-28 melanoma
SNB-75 CNS = tested on: SNB-75 CNS
T-47D breast = tested on: T-47D breast

SMILES	GI50 (HCT-116 colon)	TGI (HCT-116 colon)	GI50 (K-562 leukemia)	TGI (K-562 leukemia)	GI50 (M14 melanoma)	TGI (M14 melanoma)	GI50 (NCI-H460 lung)	TGI (NCI-H460 lung)	GI50 (OVCAR-8 ovarian)	TGI (OVCAR-8 ovarian)	GI50 (RPMI-8226 leukemia) [µM]	TGI (RPMI-8226 leukemia) [µM]	GI50 (SF-295 CNS)	TGI (SF-295 CNS)	GI50 (SK-MEL-28 melanoma)	TGI (SK-MEL-28 melanoma)	GI50 (SNB-75 CNS) [µM]	TGI (SNB-75 CNS) [µM]	GI50 (T-47D breast)	TGI (T-47D breast)
O=C1c2cccc3c(N4CCN(c5ccc6c7c(cccc57)C(=O)N(CCN5CCNCC5)C6=O)CC4)ccc(c23)C(=O)N1CCN1CCNCC1	3.8 µM	42.9 µM	2.78 µM	8.29 µM	15 µM	37.2 µM	12.5 µM	80 µM	10.9 µM	41.5 µM	2.45	8.55	15.5 µM	35.7 µM	17.1 µM	34.4 µM	17.4	33.8	> 100 µM	> 100 µM
Clc1ccc2c(NCCCN3CCN(c4nc(-n5ccnc5)nc5ccccc45)CC3)ccnc2c1	–	–	2.1 µM	6.13 µM	–	–	–	–	–	–	2.21	5.19	1.88 µM	3.52 µM	1.8 µM	3.34 µM	1.58	3.25	> 100 µM	> 100 µM
CN/N=C(\C)CC(=O)Nc1cccc(Cl)c1C	–	> 100 µM	–	> 100 µM	–	> 100 µM	–	> 100 µM	–	> 100 µM	–	> 100	–	> 100 µM	–	> 100 µM	–	> 100	–	–
O=C1OC(c2ccc([N+](=O)[O-])cc2)=N/C1=C\c1ccc(O)cc1	–	> 100 µM	–	> 100 µM	–	> 100 µM	–	> 100 µM	–	> 100 µM	–	> 100	–	> 100 µM	–	> 100 µM	–	> 100	–	> 100 µM
Cc1ccnc2c1NC(=O)c1cccnc1N2C1CC1	> 100 µM	> 100 µM	> 100 µM	> 100 µM	> 100 µM	> 100 µM	> 100 µM	> 100 µM	> 100 µM	> 100 µM	> 100	> 100	–	–	> 100 µM	> 100 µM	54.4	> 100	> 100 µM	> 100 µM
Nc1ccc(-c2ccc(-c3nc4ccccc4[nH]3)cc2)cc1	2.45 µM	> 100 µM	0.117 µM	> 100 µM	0.0328 µM	> 100 µM	0.196 µM	> 65.1 µM	14.1 µM	97.5 µM	3.34	39.9	–	–	2.08 µM	> 100 µM	27.8	69.4	3.89 µM	> 100 µM
C[C@]12CC[C@H]3[C@@H](C[C@@H]4SC(Nc5cccc(F)c5)=N[C@@]45CC(=O)CC[C@]35C)[C@@H]1CCC2=O	1.59 µM	3.24 µM	–	–	2.36 µM	7.23 µM	2.52 µM	5.58 µM	2.79 µM	7.98 µM	0.865	3.9	1.19 µM	2.97 µM	1.52 µM	4.27 µM	1.52	4.94	2.22 µM	6.95 µM
O=C(O)C1Cc2nc[nH]c2CN1 (stereo not drawn)	–	> 100 µM	–	> 100 µM	–	> 100 µM	–	> 100 µM	–	> 100 µM	–	> 100	–	> 100 µM	–	> 100 µM	–	> 100	–	–
O=C(c1cccs1)c1c(C(F)(F)F)n([O-])c2cc(F)c(F)cc2[n+]1=O	1.82 µM	8.01 µM	0.71 µM	2.44 µM	2.48 µM	6.6 µM	2.03 µM	12.5 µM	2.77 µM	5.16 µM	0.501	3.51	3.71 µM	7.3 µM	1.91 µM	3.7 µM	–	–	2.25 µM	5.96 µM
O=C1C=C(Br)C(=O)C(Br)=C1	–	> 100 µM	–	> 100 µM	–	> 100 µM	–	> 100 µM	–	> 100 µM	–	> 82.2	–	> 100 µM	–	> 100 µM	–	> 100	–	–
COc1ccc(/C=N/NC(=O)O)cc1	–	> 100 µM	–	> 100 µM	–	> 100 µM	–	> 100 µM	–	–	–	> 100	–	> 100 µM	–	> 100 µM	–	> 100	–	> 100 µM
CC(=O)Nc1ccc(/C=c2\sc3nnc(/C=C/c4ccccc4)n3c2=O)cc1	–	> 50 µM	–	> 50 µM	–	> 50 µM	–	> 50 µM	–	> 50 µM	–	> 50	–	> 50 µM	–	> 50 µM	–	> 50	–	–
CC(NC1CCC[C@H]1O)c1ccccc1 (mixture of isomers)	–	> 100 µM	–	> 100 µM	–	> 100 µM	–	> 100 µM	–	> 100 µM	–	> 100	–	> 100 µM	–	> 100 µM	–	> 100	–	–
CC1=CC(C)C(O)C(C)/C=C/C(O)C/C=C(/C)C(=O)CC(O)C(C)\C=C/C=C/C=C\C(=O)NC2=C(O)c3cc(C)c(O)c(c3C(=O)C2=O)C1=O (stereo not drawn)	–	> 100 µM	–	–	–	> 100 µM	–	> 100 µM	–	> 100 µM	–	> 100	–	> 100 µM	–	> 100 µM	–	> 100	–	> 100 µM
NC(C(=O)O)C(N)C(=O)O (stereo not drawn)	–	> 100 µM	–	> 100 µM	–	> 100 µM	–	> 100 µM	–	> 100 µM	–	> 100	–	> 100 µM	–	> 100 µM	–	–	–	> 100 µM
NC1=C(c2nc(-c3cc4ccccc4oc3=O)cs2)C(c2ccco2)c2c(c3ccccc3oc2=O)O1 (stereo not drawn)	> 150 µg/mL	> 150 µg/mL	95.9 µg/mL	> 150 µg/mL	100 µg/mL	> 150 µg/mL	> 150 µg/mL	> 150 µg/mL	> 150 µg/mL	> 150 µg/mL	–	–	130 µg/mL	> 150 µg/mL	> 150 µg/mL	> 150 µg/mL	–	–	> 150 µg/mL	> 150 µg/mL
O=[N+]([O-])c1ccc2nc(N/N=C/c3ccc(O)cc3)sc2c1	2.89 µM	> 100 µM	2.58 µM	> 100 µM	–	–	4.18 µM	24.2 µM	3.75 µM	32.2 µM	2.56	15.8	5.61 µM	> 100 µM	9.43 µM	57.2 µM	5.16	56.1	3.01 µM	13.2 µM
C=C(CO)CC(O)c1ccccc1 (stereo not drawn)	–	> 100 µM	–	> 100 µM	–	> 100 µM	–	> 100 µM	–	> 100 µM	–	> 100	–	> 100 µM	–	> 100 µM	–	> 100	–	–
O=C(C#Cc1c[nH]c(=O)[nH]c1=O)c1ccccc1	–	22 µM	–	14.4 µM	–	18 µM	–	28.6 µM	–	22.4 µM	–	30.1	–	> 100 µM	–	22.9 µM	–	33.1	–	–
C/C=C(/C)C(=O)OC1C=C(CO)C(=O)C(OC(=O)/C(C)=C\C)C1C(C)C (stereo not drawn)	0.49 µM	1.67 µM	0.401 µM	19.2 µM	0.795 µM	2.26 µM	1.25 µM	2.94 µM	0.633 µM	2.21 µM	0.337	1.37	1.82 µM	3.35 µM	1.39 µM	2.8 µM	1.4	2.73	–	–
COc1ccc2cc(C(=O)/C=C/c3ccc(OC)c(OC)c3)ccc2c1	2.69 µM	10.3 µM	5 µM	94.9 µM	11.2 µM	25.7 µM	7.38 µM	> 100 µM	14 µM	49.7 µM	4.09	20.3	35.6 µM	> 100 µM	33.7 µM	98.9 µM	–	–	43.4 µM	> 100 µM
Cc1ccc(C(=O)/C=C/c2ccccc2Cl)cc1	–	25.6 µM	–	46 µM	–	31.4 µM	–	29.1 µM	–	29.6 µM	–	44.4	–	39.8 µM	–	29.2 µM	–	44.8	–	–
O=C(Nc1cc(C(F)(F)F)ccc1Cl)C(=O)C(C(=O)c1ccc2ccccc2c1)C1OC(=O)c2ccccc21 (stereo not drawn)	–	30.2 µM	–	49.6 µM	–	25 µM	–	20.7 µM	–	24.8 µM	–	> 54.5	–	27.6 µM	–	13.1 µM	–	21.7	–	–
C#C[C@]1(O)CC[C@H]2[C@@H]3CC=C4c5nc(Nc6ccc(OC)cc6OC)sc5CC[C@]4(C)[C@H]3CC[C@@]21C	1.21 µM	2.7 µM	0.525 µM	13 µM	1.37 µM	3.53 µM	2.65 µM	10.3 µM	3.2 µM	> 100 µM	0.248	0.804	0.249 µM	0.613 µM	0.712 µM	2.7 µM	–	–	2.67 µM	15.7 µM
NC(=O)c1c(OCc2c(F)cc(Br)cc2F)nsc1NC(=O)NCCCCN1CCCC1	2.22 µM	8.41 µM	1.44 µM	5.91 µM	1.6 µM	3.46 µM	2.6 µM	> 10 µM	4 µM	> 10 µM	2.4	6	2.26 µM	> 10 µM	1.71 µM	3.35 µM	–	–	1.18 µM	> 10 µM
